According to patent US10385070B2, “Chroman-spirocyclic piperidine amides as modulators of ion channels” (VERTEX PHARMACEUTICALS INCORPORATED, priority 2011, dated 2019):

Target: human NaV subtype, like NaV 1.7 (Homo sapiens, UniProt Q15858)
Experiment: E-VIPR optical membrane potential assay with electrical stimulation
Format: cell-based
Conditions: active against one or more sodium channels; assay and NaV subtype not specified for Table 3; read-out: IC50 Binned Activity Data
Source text: Assays for Detecting and Measuring NaV Inhibition Properties of Compound E-VIPR Optical Membrane Potential Assay Method with Electrical Stimulation
Sodium channels are voltage-dependent proteins that can be activated by inducing membrane voltage changes by applying electric fields. The electrical stimulation instrument and methods of use are described in Ion Channel Assay Methods PCT/US01/21652, herein incorporated by reference and are referred to as E-VIPR. The instrument comprises a microtiter plate handler, an optical system for exciting the coumarin dye while simultaneously recording the coumarin and oxonol emissions, a waveform generator, a current- or voltage-controlled amplifier, and a device for inserting electrodes in well. Under integrated computer control, this instrument passes user-programmed electrical stimulus protocols to cells within the wells of the microtiter plate.
24 hours before the assay on E-VIPR, HEK cells expressing human NaV subtype, like NaV 1.7, are seeded in 384-well poly-lysine coated plates at 15,000-20,000 cells per well. Other subtypes are performed in an analogous mode in a cell line expressing the NaV of interest. HEK cells are grown in media (exact composition is specific to each cell type and NaV subtype) supplemented with 10% FBS (Fetal Bovine Serum, qualified; GibcoBRL #16140-071) and 1% Pen-Strep (Penicillin-Streptomycin; GibcoBRL #15140-122). Cells are grown in vented cap flasks, in 90% humidity and 10% CO2, to 100% confluence. They are usually split by trypsinization 1:10 or 1:20, depending on scheduling needs, and grown for 2-3 days before the next split.
100 mg/mL Pluronic F-127 (Sigma #P2443), in dry DMSO
Compound Plates: 384-well round bottom plate, e.g. Corning 384-well Polypropylene Round Bottom #3656
Cell Plates: 384-well tissue culture treated plate, e.g. Greiner #781091-1B
Bath1 buffer. Glucose 10 mM (1.8 g/L), Magnesium Chloride (Anhydrous), 1 mM (0.095 g/L), Calcium Chloride, 2 mM (0.222 g/L), HEPES 10 mM (2.38 g/L), Potassium Chloride, 4.5 mM (0.335 g/L), Sodium Chloride 160 mM (9.35 g/L).
Hexyl Dye Solution: Bath1 Buffer+0.5% β-cyclodextrin (make this prior to use, Sigma #C4767), 8 μM CC2-DMPE+2.5 μM DiSBAC6(3). To make the solution Add volume of 10% Pluronic F127 stock equal to volumes of CC2-DMPE+DiSBAC6(3). The order of preparation is first mix Pluronic and CC2-DMPE, then add DiSBAC6(3) while vortexing, then add Bath1+β-Cyclodextrin.
1) Pre-spot compounds (in neat DMSO) into compound plates. Vehicle control (neat DMSO), the positive control (20 mM DMSO stock tetracaine, 125 μM final in assay) and test compounds are added to each well at 160× desired final concentration in neat DMSO. Final compound plate volume will be 80 μL (80-fold intermediate dilution from 1 μL DMSO spot; 160-fold final dilution after transfer to cell plate). Final DMSO concentration for all wells in assay is 0.625%.
2) Prepare Hexyl Dye Solution.
3) Prepare cell plates. On the day of the assay, medium is aspirated and cells are washed three times with 100 μL of Bath1 Solution, maintaining 25 μL residual volume in each well.
4) Dispense 25 μL per well of Hexyl Dye Solution into cell plates. Incubate for 20-35 minutes at room temp or ambient conditions.
5) Dispense 80 μL per well of Bath1 into compound plates. Acid Yellow-17 (1 mM) is added and Potassium Chloride can be altered from 4.5 to 20 mM depending on the NaV subtype and assay sensitivity.
6) Wash cell plates three times with 100 μL per well of Bath1, leaving 25 μL of residual volume. Then transfer 25 uL per well from Compound Plates to Cell Plates. Incubate for 20-35 minutes at room temp/ambient condition
7) Read Plate on E-VIPR. Use the current-controlled amplifier to deliver stimulation wave pulses for typically 9 seconds and a scan rate of 400 Hz. A pre-stimulus recording is performed for 0.5 seconds to obtain the un-stimulated intensities baseline. […]

Sequence of human NaV subtype, like NaV 1.7 (Q15858 whole entry): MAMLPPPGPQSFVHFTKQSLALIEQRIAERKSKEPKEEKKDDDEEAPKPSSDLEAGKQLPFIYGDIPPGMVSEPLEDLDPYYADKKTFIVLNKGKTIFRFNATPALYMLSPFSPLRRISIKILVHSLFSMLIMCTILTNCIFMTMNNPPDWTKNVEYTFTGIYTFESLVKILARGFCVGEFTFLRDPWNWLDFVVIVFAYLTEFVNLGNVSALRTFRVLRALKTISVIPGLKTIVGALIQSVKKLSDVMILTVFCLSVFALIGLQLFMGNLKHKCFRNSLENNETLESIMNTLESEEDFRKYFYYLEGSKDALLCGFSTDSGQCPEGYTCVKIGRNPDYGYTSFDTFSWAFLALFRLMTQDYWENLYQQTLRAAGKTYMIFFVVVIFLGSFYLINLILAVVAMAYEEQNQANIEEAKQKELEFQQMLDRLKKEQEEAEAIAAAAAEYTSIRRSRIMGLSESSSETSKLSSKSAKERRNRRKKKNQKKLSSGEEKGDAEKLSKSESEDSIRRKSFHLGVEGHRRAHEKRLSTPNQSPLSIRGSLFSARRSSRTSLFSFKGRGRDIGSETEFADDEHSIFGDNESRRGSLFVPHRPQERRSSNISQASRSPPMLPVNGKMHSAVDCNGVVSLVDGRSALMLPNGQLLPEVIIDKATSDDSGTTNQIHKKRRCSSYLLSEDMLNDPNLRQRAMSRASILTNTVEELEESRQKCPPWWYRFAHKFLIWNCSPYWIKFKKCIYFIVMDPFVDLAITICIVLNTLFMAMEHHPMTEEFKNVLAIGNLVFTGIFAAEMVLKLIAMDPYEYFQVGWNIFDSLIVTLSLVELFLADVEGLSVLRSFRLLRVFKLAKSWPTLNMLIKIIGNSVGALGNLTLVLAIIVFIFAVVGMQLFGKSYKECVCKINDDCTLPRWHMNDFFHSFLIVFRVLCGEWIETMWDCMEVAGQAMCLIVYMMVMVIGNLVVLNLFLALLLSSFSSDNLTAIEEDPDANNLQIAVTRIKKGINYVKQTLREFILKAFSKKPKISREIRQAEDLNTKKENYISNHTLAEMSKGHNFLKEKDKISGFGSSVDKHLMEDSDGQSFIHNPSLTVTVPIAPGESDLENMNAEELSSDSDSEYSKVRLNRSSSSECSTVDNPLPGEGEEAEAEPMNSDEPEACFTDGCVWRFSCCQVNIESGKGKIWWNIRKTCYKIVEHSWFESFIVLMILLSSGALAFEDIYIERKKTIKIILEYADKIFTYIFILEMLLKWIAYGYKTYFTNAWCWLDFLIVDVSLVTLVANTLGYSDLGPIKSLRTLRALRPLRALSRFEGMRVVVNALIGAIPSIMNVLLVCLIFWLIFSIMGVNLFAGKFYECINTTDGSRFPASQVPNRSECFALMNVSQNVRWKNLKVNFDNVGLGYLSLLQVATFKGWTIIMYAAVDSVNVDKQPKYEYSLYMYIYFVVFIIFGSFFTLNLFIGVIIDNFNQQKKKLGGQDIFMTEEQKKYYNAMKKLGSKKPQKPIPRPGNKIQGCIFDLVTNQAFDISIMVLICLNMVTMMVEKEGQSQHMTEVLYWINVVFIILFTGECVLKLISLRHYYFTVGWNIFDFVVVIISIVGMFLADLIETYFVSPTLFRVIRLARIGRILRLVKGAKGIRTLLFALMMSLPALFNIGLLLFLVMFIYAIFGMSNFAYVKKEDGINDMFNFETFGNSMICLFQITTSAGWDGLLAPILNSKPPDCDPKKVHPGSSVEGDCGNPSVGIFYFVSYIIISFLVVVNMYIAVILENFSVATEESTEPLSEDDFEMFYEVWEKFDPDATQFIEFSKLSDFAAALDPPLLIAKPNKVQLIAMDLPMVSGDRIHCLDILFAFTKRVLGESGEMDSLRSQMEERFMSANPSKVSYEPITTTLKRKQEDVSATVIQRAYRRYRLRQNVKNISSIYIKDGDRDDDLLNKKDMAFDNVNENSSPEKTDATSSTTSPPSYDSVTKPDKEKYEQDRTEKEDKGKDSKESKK

IC50 [µM] | SMILES
> 5 | COc1cc(C(=O)N2CCC3(CC2)CC(OC)c2ccccc2S3(=O)=O)ccc1OC(C)C (centres unmarked) [Compound 109]
≤ 2 | CC(C)O[C@@H]1CC2(CCN(C(=O)c3ccc(S(=O)(=O)C(F)F)cc3)CC2)Oc2ccc(F)cc21 [Compound 110]
> 5 | CCc1ccc(C(=O)N2CCC3(CC2)C[C@@H](OC(C)C)c2cc(F)ccc2O3)nc1 [Compound 111]
≤ 2 | CC(C)Oc1ccc(C(=O)N2CCC3(CC2)C[C@@H](OC(C)C)c2cc(F)ccc2O3)cc1F [Compound 112]
≤ 2 | COc1ccccc1C(=O)N1CCC2(CC1)CC(OC)c1ccccc1O2 (centres unmarked) [Compound 113]
≤ 2 | COc1cc(C(=O)N2CCC3(CC2)C[C@@H](OC(C)C)c2ccccc2O3)ccc1OC(C)C [Compound 114]
2 to 5 | CC(C)O[C@H]1CC2(CCN(C(=O)c3ccc(C(C)(C)O)cc3)CC2)Oc2ccccc21 [Compound 115]
2 to 5 | COc1cc(C(=O)N2CCC3(CC2)C[C@@H](OC(C)C)c2ccccc2O3)ccc1OCCCO [Compound 116]
≤ 2 | COc1cc(C(=O)N2CCC3(CC2)C[C@@H](OC(C)C)c2cc(F)ccc2O3)ccc1OCCO [Compound 117]
≤ 2 | CC(C)OC1CC2(CCN(C(=O)c3ccc(C(C)(C)O)c(F)c3)CC2)Oc2cc(F)ccc21 (centres unmarked) [Compound 118]
≤ 2 | CC(C)OC1CC2(CCN(C(=O)c3ccc(S(=O)(=O)C(C)C)cc3)CC2)Oc2ccccc21 (centres unmarked) [Compound 119]
≤ 2 | COc1cc(C(=O)N2CCC3(CC2)C[C@@H](OC(C)C)c2cc(F)ccc2O3)ccc1C(C)(C)CO [Compound 120]
> 5 | CCO[C@@H]1CC2(CCN(C(=O)c3ccc(S(=O)(=O)C(F)F)cc3)CC2)Oc2ccc(F)cc21 [Compound 121]
≤ 2 | Cc1cc(C(=O)N2CCC3(CC2)C[C@@H](O)c2cc(F)ccc2O3)ccc1OC(C)C [Compound 122]
2 to 5 | CC(C)O[C@H]1CC2(CCN(C(=O)c3ccc4c(cnn4C)c3)CC2)Oc2ccccc21 [Compound 123]
> 5 | CC(C)Oc1ccc(C(=O)N2CCC3(CC2)C[C@@H](OC(C)C)c2ccccc2O3)cn1 [Compound 124]
≤ 2 | CCOc1ccc(C(=O)N2CCC3(CC2)C[C@@H](OC(C)C)c2ccccc2O3)cc1F [Compound 125]
≤ 2 | CCc1ccc(C(=O)N2CCC3(CC2)C[C@@H](OC(C)C)c2cc(F)ccc2O3)cc1OC [Compound 126]
≤ 2 | COc1cc(C(=O)N2CCC3(CC2)CC(OC2CC2)c2ccccc2O3)ccc1OC(C)C (centres unmarked) [Compound 127]
≤ 2 | COc1cc(C(=O)N2CCC3(CC2)CC(OC(C)(C)C)c2ccccc2O3)ccc1OC(C)C (centres unmarked) [Compound 128]
2 to 5 | CCOc1ccc(C(=O)N2CCC3(CC2)C[C@@H](OC(C)C)c2cc(F)ccc2O3)nc1 [Compound 129]
2 to 5 | CC(C)O[C@@H]1CC2(CCN(C(=O)c3ccc(C(C)(C)O)c(F)c3)CC2)Oc2cc(F)ccc21 [Compound 130]
≤ 2 | CC(C)O[C@@H]1CC2(CCN(C(=O)c3ccccc3OC(F)(F)F)CC2)Oc2ccc(F)cc21 [Compound 131]
≤ 2 | CC1CCCN(c2ccc(C(=O)N3CCC4(CC3)C[C@@H](OC(C)C)c3cc(F)ccc3O4)nc2)C1 (some centres unmarked) [Compound 132]
≤ 2 | COc1ccc(C(=O)N2CCC3(CC2)C[C@H](OC(C)C)c2ccccc2O3)cc1C [Compound 133]
≤ 2 | Cc1cc(C(=O)N2CCC3(CC2)C[C@@H](O)c2cc(F)ccc2O3)ccc1C(C)(C)O [Compound 134]
≤ 2 | COCOC1Cc2ccccc2OC12CCN(C(=O)c1ccc(OC(C)C)c(OC)c1)CC2 (centres unmarked) [Compound 135]

IC50 [µM] | SMILES
≤ 2 | COc1cc(C(=O)N2CCC3(CC2)C[C@@H](OC(C)C)c2ccccc2O3)ccc1O [Compound 136]
≤ 2 | CC(C)O[C@@H]1CC2(CCN(C(=O)c3ccc4c(cnn4C)c3)CC2)Oc2ccccc21 [Compound 137]
≤ 2 | Cc1cc(C(=O)N2CCC3(CC2)CC(O)c2c(F)cccc2O3)ccc1OC(C)C (centres unmarked) [Compound 138]
≤ 2 | CC(C)Oc1ccc(C(=O)N2CCC3(CC2)C[C@@H](OC(C)C)c2cc(F)ccc2O3)nc1 [Compound 139]
≤ 2 | CC(C)Oc1ccc(C(=O)N2CCC3(CC2)C[C@@H](OC(C)C)c2ccccc2O3)cc1F [Compound 140]
≤ 2 | Cc1cc(C(=O)N2CCC3(CC2)CC(OC(C)C)c2ccccc2O3)ccc1OC(C)C (centres unmarked) [Compound 141]
≤ 2 | COc1cc(C(=O)N2CCC3(CC2)CC(OC)c2ccccc2O3)ccc1OC(C)C (centres unmarked) [Compound 142]
≤ 2 | COc1cc(C(=O)N2CCC3(CC2)CC(Cn2cccn2)c2ccccc2O3)ccc1OC(C)C (centres unmarked) [Compound 143]
≤ 2 | COc1cc(O)ccc1C(=O)N1CCC2(CC1)C[C@H](OC(C)C)c1ccccc1O2 [Compound 144]
≤ 2 | COc1cc(C(=O)N2CCC3(CC2)CC(Oc2cccnc2)c2ccccc2O3)ccc1OC(C)C (centres unmarked) [Compound 145]
≤ 2 | COc1cc(C(=O)N2CCC3(CC2)C[C@@H](OC(C)C)c2cc(F)ccc2O3)ccc1OC(C)C [Compound 146]
≤ 2 | CC(C)CS(=O)(=O)c1ccc(C(=O)N2CCC3(CC2)C[C@@H](OC(C)C)c2cc(F)ccc2O3)cc1 [Compound 147]
≤ 2 | CC(C)Oc1ccc(C(=O)N2CCC3(CC2)C[C@@H](OC(C)C)c2cc(F)ccc2O3)cc1CO [Compound 148]
≤ 2 | Cc1cc(C(=O)N2CCC3(CC2)C[C@H](OC(C)C)c2ccccc2O3)ccc1O [Compound 149]
≤ 2 | COc1cc(C(=O)N2CCC3(CC2)CC(OC(C)C)c2ccccc2O3)ccc1OC(C)C (centres unmarked) [Compound 150]
≤ 2 | COc1cc(C(=O)N2CCC3(CC2)Oc2ccccc2C(OC(C)C)C3(C)C)ccc1OC(C)C (centres unmarked) [Compound 151]
≤ 2 | COc1cc(C(=O)N2CCC3(CC2)CC(Oc2ccccc2C#N)c2ccccc2O3)ccc1OC(C)C (centres unmarked) [Compound 152]
2 to 5 | CC(C)O[C@@H]1CC2(CCN(C(=O)c3ccc(S(=O)(=O)C(C)C)cc3)CC2)Oc2c(F)cc(F)cc21 [Compound 153]
≤ 2 | CC(C)O[C@H]1CC2(CCN(C(=O)c3ccc(C(C)(C)O)c(F)c3)CC2)Oc2cc(F)ccc21 [Compound 154]
≤ 2 | COc1cc(C(=O)N2CCC3(CC2)C[C@@H](OC(C)C)c2cc(F)ccc2O3)ccc1O[C@@H]1CCOC1 [Compound 155]
≤ 2 | Cc1cc(C(=O)N2CCC3(CC2)C[C@@H](OC(C)C)c2cc(F)ccc2O3)ccc1S(C)(=O)=O [Compound 156]
≤ 2 | CC(C)OC1CC2(CCN(C(=O)c3ccccc3OC(F)(F)F)CC2)Oc2ccccc21 (centres unmarked) [Compound 157]
≤ 2 | COc1cc(C(=O)N2CCC3(CC2)CC(OCC2CC2)c2ccccc2O3)ccc1OC(C)C (centres unmarked) [Compound 158]
≤ 2 | Cc1cc(C(F)F)n2ncc(C(=O)N3CCC4(CC3)C[C@H](OC(C)C)c3ccccc3O4)c2n1 [Compound 159]
≤ 2 | COc1cc(C(=O)N2CCC3(CC2)C[C@@H](OC(C)C)c2ccccc2O3)ccc1C(C)(C)CO [Compound 160]
≤ 2 | CC(C)O[C@@H]1CC2(CCN(C(=O)c3ccc([S+]([O-])C(C)C)cc3)CC2)Oc2ccc(F)cc21 (some centres unmarked) [Compound 161]
